The source of these data is patent US20170189357A1, “METHODS OF LIMITING MORBIDITY IN HEMOGLOBINOPATHIES” (DUKE UNIVERSITY, priority 2014, published 2017).

Read-outs that look alike come from different tables or passages of the source.

The test system of one assay is p60-c-Src. Nature of the assay: p60-c-Src phosphorylation in SSRBCs (Western blot of membrane ghosts). The conditions noted are these: 1 μM inhibitor before 1 μg/ml PTx; p<0.0001. In kind it is cell-based, human. An excerpt:
FIG. 10 is a set of figures showing inhibition of Gai protein increased phosphorylation of p72^syk and p60-c-Src tyrosine kinases in intact SSRBCs. FIG. 10A-FIG. 10G show the kinase expression results for twenty μg of membrane protein ghosts (SSRBC ghosts, n=7, SS1, SS2, SS3, SS4, SS5, SS6 and SS7; and normal RBC ghosts, n=7, AA1, AA2, AA3AA4, AA5, AA6 and AA7) were used per lane. FIG. 10A-FIG. 10D show Western blots and corresponding graphs showing the kinase expression results of protein ghosts which were stained with antibodies against phosphorylated p60-c-Src [p-p60-c-Src (SS1, SS2, SS3, SS4; and AA1, AA2, AA3, AA4)] and p60-c-Src [p60-c-Src (SS1, SS2, SS3, SS4, SS5, SS6, SS7, and AA1, AA2, AA3, AA4, AA5, AA6, AA7)]; and phosphorylated p72^syk [p-Syk (SS1, SS2, SS3, SS4; and AA1, AA2, AA3, AA4)] and p72^syk[Syk (SS1, SS2, SS3, SS4, SS5, SS6, SS7; and AA1, AA2, AA3, AA4, AA5, AA6, AA7)]. Antibody against glycophorin C was used as a loading control. FIG. 10C and FIG. 10D show the quantitative analysis of the data presented as relative kinase expression [SSRBCs (n=7) and AARBCs (n=7)], and as relative kinase phosphorylation [SSRBCs (n=4) and AARBCs (n=4)]. […] Quantitative analysis of the data (normalized according to total kinase expression) is presented as fold change in p60-c-Src phosphorylation (FIG. 10E and FIG. 10F) and Syk phosphorylation (FIG. 10G). […]

For a further assay, the system named is SSRBCs. As to the kind of experiment: SSRBC adhesion to HUVECs after PTx/CTx treatment, with or without tyrosine kinase inhibitors, intermittent flow. It counts as cell-based, human. The note with it: 1 μM inhibitor before 1 μg/ml PTx. The procedure:
FIG. 9 is a set of figures showing that activation of Gas protein increased SSRBC adhesion to endothelial cells via activation of tyrosine kinases. FIG. 9A is a schematic depiction of GPCR pathways along with inhibitors and stimuli of the kinases of these pathways regulating SSRBC adhesion. FIGS. 9B-E are a set of graphs showing adherence of RBCs which were sham-treated, or treated with Pertussis toxin (PTx) (0.5, 1 or 2 μg/ml) (FIGS. 9B-D), 1 μg/ml Cholera toxin (CTx) (FIG. 9B) or phenylarsine oxide (0.1, 10, 20, 40 and 80 μM) (FIG. 9E), or pretreated with 1 μM PP1, 1 μM PP2 or 1 μM piceatannol prior to treatment with 1 μg/ml PTx (FIG. 9C and FIG. 9D). Treated RBCs were tested for adhesion to HUVECs in intermittent flow conditions at different shear stresses. Data are presented as % adherent RBCs (FIG. 9B) or SSRBCs (FIG. 9C-FIG. 9E) at a shear stress of 2 dynes/cm^2. Each graph is representative of 3 different experiments. Error bars show standard error of the mean (SEM). *: p<0.001 compared to sham-treated RBCs; **: p<0.01 compared to PTx-treated RBCs.
Vaso-occlusion is associated with various types of physiological stress. β2-adrenergic receptors (β2AR) stimulation with catacholamines employs both Gas and &Gai (or Ga0) pathways. We first determined the Ga, Gas and/or Gai, in sickle cell regulating tyrosine kinase activation-mediated sickle cell adhesion to endothelial cells (FIG. 9A). Sickle cells adhered to some degree to endothelial cells under intermittent flow conditions at a shear stress of 2 dynes/cm^2. (FIGS. 9B-D). […] The selective Src-family kinase inhibitors, PP1 and PP2 (FIG. 9A), and the non-receptor tyrosine kinase p72^Syk inhibitor, piceatannol (FIG. 9A), inhibited the effect of PTx on sickle cell adhesion by 67±2.7%, 64±1.7% and 60 ±5.5%, respectively (p<0.01) (FIGS. 9C and 9D).

The next assay has as its system human sickle red cell. The note with it: systemic administration; cited from earlier work.
Assay [1] has as its system ERK. Nature of the assay: ERK phosphorylation in sickle RBCs exposed to hypoxia (Western blot of membrane ghosts). It counts as cell-based, human. The note with it: hypoxia 8% oxygen 2 hours.
Assay [2] concerns sickle RBCs. The note with it: 20 nM epinephrine, non-activated HUVECs.
The test system of the next assay is neutrophils (PMNs). The conditions noted are these: sickle RBCs treated with 10 μM U0126, then epinephrine; co-incubated with PMNs.
Assay [3] deals with sickle RBCs. As to the kind of experiment: Sickle RBC adhesion to non-activated and TNFα-activated HUVECs, intermittent flow. The note with it: U0126 10 μM; TNFα-activated HUVECs; shear stress 2 dynes/cm^2; p<0.05. It counts as cell-based, human.
Assay [4] has as its system ERK. The note with it: 20 nM epinephrine; n=19; p<0.05.
The subject of a further assay is leukocytes. As to the kind of experiment: Leukocyte adhesion in transgenic sickle cell mice after TNFα challenge. The note with it: 0.025, 0.05 and 0.1 mg/kg; versus vehicle.
Another assay has as its system human sickle RBCs. Nature of the assay: Human sickle RBC adhesion and vaso-occlusion in TNFα-pretreated nude mice, intravital microscopy. The conditions noted are these: sickle RBCs treated ex vivo. Here is the method: FIG. 5 is a set of photographs and graphs showing that ERK in sickle RBCs promotes vaso-occlusion in nude mice in vivo. FIG. 5A, FIG. 5B and FIG. 5C are a set of photographs showing nude mice implanted with dorsal skin-fold window chambers after injection with murine TNFα. Four hours later, intravital microscopic observations of post-capillary venules and arterioles using 10× and 20× magnifications were conducted through the window chamber immediately after infusion of fluorescently labeled human sickle RBCs (n=5) that were sham-treated (FIG. 5A; panels 1, 2, 3 and 4) or treated with the MEK inhibitor RDEA119 (FIG. 5B panels 1, 2 and 3), or human normal (AA) RBCs (n=3) sham-treated (FIG. 5C; two panels on the left) or RDEA119-treated (FIG. 5C; 2 panels on the right). Vessels without adherent cells appear gray, due to the rapidly moving of fluorescence labeled RBCs. Adhesion of human sickle RBCs in enflamed vessels and vaso-occlusion are indicated with arrows and appear as white spots in the vessels. […] Scale bar=50 μm. FIG. 5D is a graph showing quantification of the fluorescence intensity of video frames of vessel and arteriole segments used to quantify adhesion in venules and arterioles of animals occupied by sickle RBCs (n=5 for each treatment). Adhesion of fluorescently labeled sham-treated sickle RBCs (sham-treated SS) and RDEA119-treated sickle RBCs (RDEA119-treated SS) in all vessels and arterioles recorded presented as fluorescence intensity [fluorescence unit (FU)] of adherent sickle RBCs. FIG. 5E-FIG. 5G are graphs showing the values of at least 180 segments of vessels and arterioles analyzed and averaged among groups of animals (n=5) to represent percentage of vessels occupied by adherent sickle RBCs (FIG. 5E); percentage of vessels with normal blood flow, slow blood flow and no blood flow (FIG. 5F), and percentage of normal flowing vessels (FIG. 5G). Error bars show SEM of 5 different experiments for each treatment condition, *: p<0.001 compared to sham-treated sickle RBCs regardless of the vessel diameter within the ranges specified for D, E and G. […]

The next assay has as its system sickle cells. Nature of the assay: Hypoxia-induced sickle cell adhesion to microvascular endothelial cells, intermittent flow. The note with it: hypoxia 8% O2 2 h, then RDEA119; shear stress 1-2 dynes/cm^2. It counts as cell-based, human. The procedure: Sickle cells were exposed to room air (sham) or hypoxia (H) (8% O2) for 2 h followed by treatment with RDEA119 MEK inhibitor, then washed. SSRBC adhesion to microvascular endothelial cells was tested in intermittent flow condition assays, and results are presented as % adherent SSRBCs at a shear stress of 1-2 dynes/cm^2. […] Error bars show SEM of 3 different experiments.
One of the major pathophysiologic processes in SCD is vasoocclusion in response to hypoxia.

Another assay deals with murine sickle RBCs. The conditions noted are these: for inhibition of murine sickle RBC adhesion: versus vehicle, p<0.0001.
Another assay has as its system human normal (AA) RBCs. Nature of the assay: Normal human RBC adhesion in TNFα-pretreated nude mice, intravital microscopy. The conditions noted are these: normal human RBCs treated ex vivo. An excerpt:
FIG. 5 is a set of photographs and graphs showing that ERK in sickle RBCs promotes vaso-occlusion in nude mice in vivo. FIG. 5A, FIG. 5B and FIG. 5C are a set of photographs showing nude mice implanted with dorsal skin-fold window chambers after injection with murine TNFα. […] Vessels without adherent cells appear gray, due to the rapidly moving of fluorescence labeled RBCs. […] FIG. 5D is a graph showing quantification of the fluorescence intensity of video frames of vessel and arteriole segments used to quantify adhesion in venules and arterioles of animals occupied by sickle RBCs (n=5 for each treatment). Adhesion of fluorescently labeled sham-treated sickle RBCs (sham-treated SS) and RDEA119-treated sickle RBCs (RDEA119-treated SS) in all vessels and arterioles recorded presented as fluorescence intensity [fluorescence unit (FU)] of adherent sickle RBCs. FIG. 5E-FIG. 5G are graphs showing the values of at least 180 segments of vessels and arterioles analyzed and averaged among groups of animals (n=5) to represent percentage of vessels occupied by adherent sickle RBCs (FIG. 5E); percentage of vessels with normal blood flow, slow blood flow and no blood flow (FIG. 5F), and percentage of normal flowing vessels (FIG. 5G). […]

Turning to `CC(C)(C)n1nc(-c2ccc(Cl)cc2)c2c(N)ncnc21` [PP2], in the assay on p60-c-Src, the “PTx-increased p60-c-Src phosphorylation in sickle cells” value is reported as “to levels below baseline phosphorylation”. Besides, the “inhibition of the effect of PTx on sickle cell adhesion” value with SSRBCs (shear stress 2 dynes/cm^2, p<0.01) was 64±1.7%.
For `CC(C)NCC(O)COc1cccc2ccccc12` (centres unmarked) [propranolol], the “human sickle red cell adhesion and associated vasoocclusion in mice” value in the assay with human sickle red cell is on record as “inhibited human sickle red cell adhesion”.
Consider `CC(C)=CCCC(C)=CCCC(C)=CCSc1ccccc1C(=O)O` [farnesylthiosalicylic acid], for which the “effect of hypoxia on ERK phosphorylation” value in the assay with ERK [1] is recorded as “decreased the effect of hypoxia on ERK phosphorylation”.
Turning to `Oc1cc(O)cc(/C=C/c2ccc(O)c(O)c2)c1` [piceatannol], the inhibition at 1 µM in the assay on SSRBCs (Homo sapiens, HUVEC, shear stress 2 dynes/cm^2, p<0.01, read-out: inhibition of the effect of PTx on sickle cell adhesion) stood at 60 ± 5.5%.
`N#CC(=C(/N)Sc1ccccc1N)/C(C#N)=C(\N)Sc1ccccc1N` [U0126]: the “epinephrine-activated sickle cell adhesion” value with sickle RBCs [2] (U0126 10 μM) is given as “inhibited activated sickle cell adhesion”. Also, in the assay on neutrophils (PMNs), the “sickle cell-induced PMN adhesion to endothelial cells” value is on record as “decreased sickle cell-induced PMN adhesion”. In the assay on sickle RBCs [3], the “sickle cell adhesion to TNFα-activated endothelial cells” value is given as “reduced sickle cell adhesion”. Further, the “effect of hypoxia on ERK phosphorylation” value in the assay on ERK [1] was “decreased the effect of hypoxia on ERK phosphorylation”.
For `O=C1Nc2ccc(I)cc2/C1=C/c1cc(Br)c(O)c(Br)c1` [GW5074], the “effect of hypoxia on ERK phosphorylation” value in the assay with ERK [1] was “decreased the effect of hypoxia on ERK phosphorylation”.
With `CNC[C@H](O)c1ccc(O)c(O)c1` [Epinephrine, epinephrine], the “sickle cell adhesion to normal endothelial cells” value in the assay with sickle RBCs [2] (shear stress 2 dynes/cm^2) is given as “increased sickle cell adhesion to normal endothelial cells”. In addition, the “phosphorylation of sickle cell ERK” value with ERK [4] is “increased phosphorylation of sickle cell ERK”.
`COc1cc(F)c(F)c(Nc2ccc(I)cc2F)c1NS(=O)(=O)C1(C[C@H](O)CO)CC1` [RDEA119]: the “time to abrogation of leukocyte adhesion after administration” value in the assay with leukocytes is on record as at most 10 min. Moreover, the “vaso-occlusion by treated sickle cells” value with human sickle RBCs (nude mice pretreated with TNFα) is “no visible vase-occlusion”. Also, the “reduction of SSRBC adhesion compared to sham-treated SSRBCs” value in the assay on human sickle RBCs (nude mice pretreated with TNFα, n=5, p<0.0001) is 88%. In addition, the “vessels and arterioles with normal blood flow” value in the assay on human sickle RBCs (nude mice, versus 50±5.5% with sham-treated cells) worked out at 86±3.3%. Moreover, the “effect of hypoxia on sickle cell adhesion to endothelial cells” value in the assay on sickle cells is on record as “almost completely inhibited”. For the same compound, the figures for the “inhibition of murine sickle RBC adhesion” value in the assay with murine sickle RBCs (0.025 mg/kg infused 120 min after TNFα), in the assay with murine sickle RBCs (0.05 mg/kg infused 120 min after TNFα) and in the assay on murine sickle RBCs (0.1 mg/kg infused 120 min after TNFα) were 76%, 99% and 98%, respectively. For the same compound, the “time to reversal of murine sickle RBC adhesion after drug administration” value in the assay with murine sickle RBCs (lowest dose 0.025 mg/kg, effect sustained over time) is recorded as at most 10 min. Also, in the assay on murine sickle RBCs (p<0.05 for each RDEA119 dose (0.025, 0.05, 0.1 mg/kg)), the “vessels with restored blood flow” value is listed as 57%. Besides, the “adherence of normal human RBCs in enflamed vessels” value with human normal (AA) RBCs is “no real adherence”.
